From patent publication US9193717B2, “Mineralocorticoid receptor antagonists” (Merck Sharp & Dohme Corp., priority 2011, dated 2015)

Target: T1, full-length human Mineralocorticoid Receptor (MR) (Homo sapiens, UniProt P08235)
T1 construct: full-length human Mineralocorticoid Receptor (MR); host or cells: PathHunter CHO-K1 cells
T1 sequence (P08235 1-984): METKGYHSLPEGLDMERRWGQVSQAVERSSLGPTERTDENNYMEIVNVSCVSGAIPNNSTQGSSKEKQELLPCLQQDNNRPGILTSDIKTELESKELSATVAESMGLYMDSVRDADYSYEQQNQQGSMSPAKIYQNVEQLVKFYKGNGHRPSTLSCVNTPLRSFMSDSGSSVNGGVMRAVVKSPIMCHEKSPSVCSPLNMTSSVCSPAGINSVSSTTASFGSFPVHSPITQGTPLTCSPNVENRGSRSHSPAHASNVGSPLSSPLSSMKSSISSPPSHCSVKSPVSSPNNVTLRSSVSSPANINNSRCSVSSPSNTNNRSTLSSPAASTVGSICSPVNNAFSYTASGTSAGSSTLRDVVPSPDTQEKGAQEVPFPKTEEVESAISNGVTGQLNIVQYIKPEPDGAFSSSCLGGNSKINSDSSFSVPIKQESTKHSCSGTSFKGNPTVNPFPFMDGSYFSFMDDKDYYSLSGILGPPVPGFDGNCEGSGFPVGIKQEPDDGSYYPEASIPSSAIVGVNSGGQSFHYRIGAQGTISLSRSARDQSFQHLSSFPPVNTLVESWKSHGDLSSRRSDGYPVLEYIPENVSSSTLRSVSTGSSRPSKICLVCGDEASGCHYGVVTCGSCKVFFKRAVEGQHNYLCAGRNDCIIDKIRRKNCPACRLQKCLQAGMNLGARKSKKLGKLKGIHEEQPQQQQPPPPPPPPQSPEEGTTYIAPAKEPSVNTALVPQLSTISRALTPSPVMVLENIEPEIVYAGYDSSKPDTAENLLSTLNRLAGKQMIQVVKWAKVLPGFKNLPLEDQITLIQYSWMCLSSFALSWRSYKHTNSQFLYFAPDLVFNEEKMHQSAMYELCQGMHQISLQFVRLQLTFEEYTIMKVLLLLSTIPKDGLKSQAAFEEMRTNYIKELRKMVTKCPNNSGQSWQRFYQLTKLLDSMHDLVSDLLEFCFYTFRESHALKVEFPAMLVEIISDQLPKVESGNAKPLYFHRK
Assay: human MR NH Pro assay (PathHunter Protein:Protein interaction assay, MR antagonism)
Format: cell-based
Details: PathHunter CHO-K1 cells that overexpress human MR; aldosterone (0.3 nM), 6 hours at 37° C.; antagonist mode; read-out: IC50 rating
Protocol: The activity of the compounds of the present invention regarding mineralocorticoid receptor antagonism was evaluated using the following assay.
Assessment of Mr Potency in HMR NH Pro Assay
The human MR NH Pro assay is a commercially available PathHunter™ Protein:Protein interaction assay (DiscoveRx; http://www.discoverx.com/nhrs/prod-nhrs.php) that measures the ability of compounds to antagonize full-length human Mineralocorticoid Receptor (MR) binding to a coactivator peptide. PathHunter™ CHO—K1 cells that overexpress human MR (Cat #93-0456C2, Lot No: 09B0913) were cultured in growth media (F12K w/Glutamine and phenol red (Gibco 11765-047) supplemented with 10% HI FBS (Gibco 16000); 0.25 mg/ml Hygromycin in PBS (Invitrogen 10687-010, 50 mg/ml); 100 I.U./mL and 100 μg/mL Pen/Strep (Gibco 15140-122); 0.6 mg/mL Geneticin).
Compounds were assessed for MR antagonist activity by incubating the cells with a titrating dose of compound in F12K w/Glutamine and phenol red culture media (Invitrogen 11765-047) supplemented with 1% Charcoal/Dextran Treated FBS (Hyclone #SH30068.01) and aldosterone (0.3 nM) for 6 hours at 37° C. […] Growth Media: • F12K w/Glutamine and phenol red (Gibco 11765-047) • 10% HI FBS (Gibco 16000) • 0.25 mg/ml Hygromycin in PBS (Invitrogen 10687-010, 50 mg/ml) • 100 I.U./mL and 100 μg/mL Pen/Strep (Gibco 15140-122) • 0.6 mg/mL Geneticin (Gibco 10131, 50 mg/ml) • 2. Assay Media: • F12K w/Glutamine and phenol red (Invitrogen 11765-047) • 1% Charcoal/Dextran Treated FBS (Hyclone #SH30068.01) • 3. 3× PathHunter Detection Reagents (Cat#93-0001) (need ˜6 ml/plate). […] Control Agonist:Aldosterone:Sigma cat# A9477 • Prepare stock solution-10 μM in DMSO kept at −20° C. • for assay, dilute in assay media to 1.8 or 6 nM (6× of final concentration=about 0.3 nM to about 1.0 nM) • 5. Cell line: PathHunter CHO—K1 MR cells Cat #93-0456C2, Lot No: 09B0913, from operation liquid nitrogen stock. • 6. Control Antagonist:Spironolactone:Sigma #S-3378 and Eplerenone Sigma #107724-20-9 (10 mM stock concentration also prepared in DMSO and stored at −20° C.). • Methods: • Assay Set up and Calculations: • 1. Cells were grown in F12+FBS+Hygromycin+pen/strep+Genetin • 2. Cells were collected with 0.05% trypsin and the cell suspension was spun and resuspended in a volume of F12+1.5% CD-FBS and counted. • 3. The cells were resuspended to 4×10^5 cells/mL. • 4. Cells were (25 μL/well) added to the wells of a 384 well plate. • 5. The plate was then incubated at 37° C. over night in a humidified incubator with 5% CO2. • 6. Test compounds were titrated starting at 4.4 mM, 10-point titration in 1:3 dilution. • 7. Aldosterone was diluted in assay media to 1.8 nM or 6 nM from 10 μM stock (final concentration to be about 0.3 nM to about 1.0 nM). • Protocol for 384 Well Plate Format: 6 Hr Treatment: • 1. Plated 10K exponentially growing cells/well (25 μL) resuspended in assay media to each well using the Multidrop (Thermo Electron) (use white wall, clear bottom assay plates (Costar #3570) and incubate overnight at 37° C., 5% CO2. • 2. 0.25 μL 120× test compound (final DMSO concentration should be <1%) was added to each well n=2, 10 point titrations starting at 36.7 μM final concentration. • 3. 5 μL 6× agonist (final aldosterone concentration should be about 0.3 nM to about 1.0 nM) was added to all wells using the PlateMate Plus.
(ThermoFisher) (except those wells in columns 23 and 24) • 4. 5 μL of assay media was added to all wells in column 23 and 24. • 5. Plates were incubated 6 hrs at 37° C., 5% CO2. • 6. 15 μL 3× DiscoveRx detection reagent was added to each well. • 7. Plates were incubated for 1 hour at room temperature (plates stored in the dark). • 8. Plates were read on Envision (PerkinElmer) luminesence plate reader and analyzed using ADA.

| Compound | IC50 [nM] |
| --- | --- |
| C[C@H](c1ccc(F)cc1)N1C(=O)O[C@](Cc2ccccc2)(c2nc3cc(N4CCOCC4)ccc3[nH]2)C1=O [Compound 9, (5R)-5-Benzyl-3-[(1R)-1-(4-fluorophenyl)ethyl]-5-(5-morpholin-4-yl-1H-benzimidazol-2-yl)-1,3-oxazolidine-2,4-dione] | < 100 |
| C[C@H](C1CCCCC1)N1C(=O)O[C@](Cc2ccccc2)(c2nc3ccc(Cl)cc3[nH]2)C1=O [Compound 12, (5R)-5-Benzyl-5-(5-chloro-1H-benzimidazol-2-yl)-3-[(1R)-1-cyclohexylethyl]-1,3-oxazolidine-2,4-dione] | < 100 |
| C[C@H](c1ccc(F)cc1)N1C(=O)O[C@](Cc2ccccc2)(c2nc3cc(OC(F)(F)F)ccc3[nH]2)C1=O [Compound 4, (5R)-5-Benzyl-3-[(1R)-1-(4-fluorophenyl)ethyl]-5-[5-(trifluoromethoxy)-1H-benzimidazol-2-yl]-1,3-oxazolidine-2,4-dione] | 100 to 500 |
| C[C@H](c1ccc(F)cc1)N1C(=O)O[C@](Cc2ccccc2)(c2nc3cc(F)ccc3[nH]2)C1=O [Compound 2, (5R)-5-Benzyl-5-(5-fluoro-1H-benzimidazol-2-yl)-3-[(1R)-1-(4-fluorophenyl)ethyl]-1,3-oxazolidine-2,4-dione] | 100 to 500 |
| C[C@H](c1ccc(F)cc1)N1C(=O)O[C@](Cc2ccccc2)(c2nc3c(Cl)cccc3[nH]2)C1=O [Compound 20, 5-Benzyl-5-(4-chloro-1H-benzimidazol-2-yl)-3-[(1R)-1-(4-fluorophenyl)ethyl]-1,3-oxazolidine-2,4-dione] | 100 to 500 |
| C[C@H](c1ccc(F)c(F)c1)N1C(=O)O[C@](Cc2ccccc2)(c2nc3ccc(Cl)cc3[nH]2)C1=O [Compound 15, (5R)-5-Benzyl-5-(6-chloro-1H-benzimidazol-2-yl)-3-[(1R)-1-(3,4-difluorophenyl)ethyl]-1,3-oxazolidine-2,4-dione] | 100 to 500 |
| CNC(=O)c1ccc2[nH]c([C@@]3(Cc4ccccc4)OC(=O)N([C@H](C)c4ccc(F)cc4)C3=O)nc2c1 [Compound 21, Methyl 2-{(5R)-5-benzyl-3-[(1R)-1-(4-fluorophenyl)ethyl]-2,4-dioxo-1,3-oxazolidin-5-yl}-1H-benzimidazole-5-carboxamide] | 100 to 500 |
| C[C@H](C1CCCCC1)N1C(=O)O[C@](Cc2ccc(F)cc2)(c2nc3ccc(C#N)cc3[nH]2)C1=O [Compound 18, 2-{3-[(1R)-1-Cyclohexylethyl]-5-(4-fluorobenzyl)-2,4-dioxo-1,3-oxazolidin-5-yl}-1H-benzimidazole-5-carbonitrile] | 100 to 500 |

The remaining lines, values ahead:

| IC50 [nM] | Compound |
| --- | --- |
| < 100 | COc1ncccc1-c1cccc2[nH]c([C@@]3(Cc4ccccc4)OC(=O)N([C@H](C)c4ccc(F)cc4)C3=O)nc12 [Compound 33, (5R)-5-Benzyl-3-[(1R)-1-(4-fluorophenyl)ethyl]-5-[4-(2-methoxypyridin-3-yl)-1H-benzimidazol-2-yl]-1,3-oxazolidine-2,4-dione] |
| < 100 | Cc1noc(C)c1-c1ccc2[nH]c([C@@]3(Cc4ccccc4)OC(=O)N([C@H](C)c4ccc(F)cc4)C3=O)nc2c1 [Compound 23, (5R)-5-Benzyl-5-[5-(3,5-dimethylisoxazol-4-yl)-1H-benzimidazol-2-yl]-3-[(1R)-1-(4-fluorophenyl)ethyl]-1,3-oxazolidine-2,4-dione] |
| < 100 | C[C@H](c1ccc(F)cc1)N1C(=O)O[C@](Cc2ccccc2)(c2nc3cc(-c4cncnc4)ccc3[nH]2)C1=O [Compound 22, (5R)-5-Benzyl-3-[(1R)-1-(4-fluorophenyl)ethyl]-5-(5-pyrimidin-5-yl-1H-benzimidazol-2-yl)-1,3-oxazolidine-2,4-dione] |
| 500 to 2000 | C[C@H](c1ccccc1)N1C(=O)N[C@](Cc2ccccc2)(c2nc3ccc(Cl)cc3[nH]2)C1=O (single isomer, unassigned) [Compound 38] |
| 100 to 500 | C[C@H](c1ccc(F)cc1)N1C(=O)O[C@](Cc2ccccc2)(c2nc3c(-c4cccnc4)cccc3[nH]2)C1=O [Compound 36, (5R)-5-Benzyl-3-[(1R)-1-(4-fluorophenyl)ethyl]-5-(4-pyridin-3-yl-1H-benzimidazol-2-yl)-1,3-oxazolidine-2,4-dione] |
| 100 to 500 | C[C@H](c1ccc(F)cc1)N1C(=O)O[C@](Cc2ccccc2)(c2nc3c(-c4ccnn4C)cccc3[nH]2)C1=O [Compound 32, (5R)-5-Benzyl-3-[(1R)-1-(4-fluorophenyl)ethyl]-5-[4-(1-methyl-1H-pyrazol-5-yl)-1H-benzimidazol-2-yl]-1,3-oxazolidine-2,4-dione] |

Same assay, conditions: Table 3; PathHunter CHO-K1 cells that overexpress human MR; aldosterone (0.3 nM), 6 hours at 37° C.; antagonist mode; read-out: IC50

| IC50 [nM] | Compound |
| --- | --- |
| 500 to 2000 | CCCCCC[C@@H](C)N1C(=O)O[C@](Cc2ccc(F)cc2)(c2nc3cc(NS(C)(=O)=O)ccc3[nH]2)C1=O [Example 41, N-(2-((R)-5-(4-fluorobenzyl)-3-((R)-octan-2-yl)-2,4-dioxooxazolidin-5-yl)-1H-benzo[d]imidazol-5-yl)methanesulfonamide] |
| 500 to 2000 | CCCCC[C@@H](C)N1C(=O)O[C@](Cc2ccccc2)(c2nc3cc(NS(C)(=O)=O)ccc3[nH]2)C1=O [Example 40, N-(2-((R)-5-benzyl-3-((R)-heptan-2-yl)-2,4-dioxooxazolidin-5-yl)-1H-benzo[d]imidazol-5-yl)methanesulfonamide] |
| 500 to 2000 | CCCCCC[C@@H](C)N1C(=O)O[C@](Cc2ccccc2)(c2nc3cc(NS(C)(=O)=O)ccc3[nH]2)C1=O [Example 42, N-(2-((R)-5-benzyl-3-((R)-octan-2-yl)-2,4-dioxooxazolidin-5-yl)-1H-benzo[d]imidazol-5-yl)methanesulfonamide] |
